Results published in US20080213338A1, “IMPLANT STENT WITH A RETINOID FOR IMPROVED BIOCOMPATIBILITY” (priority 1997, published 2008).

Tested on: pigmented rabbits
Assay: Retinal plug implantation in vitrectomized rabbit eyes, histopathology (PAS stain) at 28 days
Assay type: in vivo
Settings: polylactic acid plug containing 10% by weight retinoid, inserted into vitreous through sclera; intravitreal injection of 500,000 human RPE cells; 28 days after insertion
Procedure: Retinal plugs were manufactured from poly(D,L)lactic acid (PLA) with an intrinsic viscosity of 0.6 DL/G. The retinoid 6-[(4,4-dimethyl thiochroman-6-yl)ethynl]nicotinic acid (AGN190299) was mixed with polymer in a three-dimensional mixer. The mixture was then extruded at 85° C. into a homogeneous rod. The retinoid was incorporated into the polymeric plug at a concentration of 10%. […] A 0.5 mm hole was drilled into the distal end of the plug to allow for suture fixation to the sclera. Placebo plugs containing no retinoid were also manufactured to the same dimensions. The average weight of the plugs was 8 mg. All plugs were sterilized by gamma irradiation at l Mrad.
The rabbit eyes were vitrectomized and the retinal plugs with or without incorporated retinoid were inserted through a sclerotomy 3 mm posterior to the corneoscleral limbus. The plugs were then fixated with the suture used to close the sclerotomy. An intravitreal injection of 500,000 human RPE cells was given to simulate traction retinal detachment. The rabbits were sacrificed at 28 days and histopathology was done.
These observed results are shown in FIG. 7 for the placebo plug and in FIG. 8 for the plug 10 including the retinoid as hereinabove described.

In the case of CC1(C)CCSc2ccc(C#Cc3ccc(C(=O)O)cn3)cc21 [AGN190299, 6-[(4,4-dimethylthiochroman-6-yl)ethynyl]nicotinic acid], the “fibrous inflammation of the capsule surrounding the plug (histopathology, PAS stain)” value is reported as “very little fibrous inflammation”.
